Source: US10047105B2, “Gyrase inhibitors” (Merck Sharp & Dohme Corp., priority 2009, dated 2018)
In brackets after ≈: the same amount, converted by molar mass.

Experiments:
S. aureus ATCC 13709 = test: MIC, antibacterial potency, S. aureus; type: cell-based; details: S. aureus
S. pneumoniae ATCC 51916 = test: MIC, S. pneumoniae; type: cell-based; details: S. pneumoniae

Structure (SMILES)	MIC, SA (S. aureus ATCC 13709) [mg/L]	MIC Spn52 (S. pneumoniae ATCC 51916) [mg/L]
CCc1[nH]c2nc(Sc3nc(C(=O)O)cs3)nc(N3CCCC(CO)C3)c2c1Cl.O=C(O)C(F)(F)F (stereo not shown) [700,408]	> 64	> 64
CCc1[nH]c2nc(Oc3cccnc3)nc(Oc3cccnc3)c2c1Cl.O=C(O)C(F)(F)F [700,410]	1	4
CCc1[nH]c2nc(Sc3cc(OC)nc(OC)n3)nc(N3CC(O)C3)c2c1Cl.Cl.Cl [700,411]	> 64	> 64
CCc1[nH]c2nc(Sc3cc(=O)n(CCC4CCCCC4)c(=O)[nH]3)nc(N3CC(O)C3)c2c1Br [700,412]	> 64	> 64
CCCn1c(=O)cc(Sc2nc(N3CC(O)C3)c3c(Br)c(CC)[nH]c3n2)[nH]c1=O [700,414]	≤ 0.5	1 (≈ 2.08 µM)
CCc1[nH]c2nc(Sc3cc(=O)n(CCC(F)(F)F)c(=O)[nH]3)nc(N3CC(O)C3)c2c1Br [700,415]	≤ 0.5	1 (≈ 1.87 µM)
CCc1[nH]c2nc(Sc3cc(=O)n(CC4CC4)c(=O)[nH]3)nc(N3CC(O)C3)c2c1Br [700,416]	≤ 0.5	2 (≈ 4.05 µM)
CCOc1ccc(Nc2nc(OCC)c3c(Br)c(CC)[nH]c3n2)cn1.O=C(O)C(F)(F)F [700,417]	1	16
CCCn1c(=O)cc(Sc2nc(N3CC(O)C3)c3c(Cl)c(CC)[nH]c3n2)[nH]c1=O [700,418]	1 (≈ 2.29 µM)	8 (≈ 18.3 µM)
CCc1[nH]c2nc(Sc3cnc(C#N)c(F)c3)nc(N3CC(O)C3)c2c1Cl.O=C(O)C(F)(F)F.O=C(O)C(F)(F)F [700,422]	> 64	> 64
CCc1[nH]c2nc(Sc3cnc4nccnc4c3)nc(N3CCOCC3)c2c1Br [700,423]	1 (≈ 2.12 µM)	2 (≈ 4.23 µM)
CCc1[nH]c2nc(Sc3cnc4nccnc4c3)nc(N3CCOCC3)c2c1Cl [700,424]	≤ 0.5	1 (≈ 2.34 µM)
CCc1[nH]c2nc(Sc3cnc4nccnc4c3)nc(N3CCCC(CO)C3)c2c1Cl (stereo not shown) [700,425]	≤ 0.5	2 (≈ 4.39 µM)
CCc1[nH]c2nc(Sc3cnc4nccnc4c3)nc(N3CCC[C@H]3CO)c2c1Cl [700,426]	1 (≈ 2.26 µM)	1 (≈ 2.26 µM)
CCc1[nH]c2nc(Sc3cnc4nccnc4c3)nc(N3CC[C@H](O)C3)c2c1Cl [700,427]	≤ 0.5	1 (≈ 2.34 µM)
CCc1[nH]c2nc(Sc3cnc4nccnc4c3)nc(N3CC[C@@H](O)C3)c2c1Cl [700,428]	≤ 0.5	1 (≈ 2.34 µM)

Structure (SMILES)	MIC, SA (S. aureus ATCC 13709) [mg/L]	MIC Spn52 (S. pneumoniae ATCC 51916) [mg/L]
CCc1[nH]c2nc(Sc3cnc4nccnc4c3)nc(N3CCC(N4CCOCC4)C3)c2c1Cl (stereo not shown) [700,429]	≤ 0.5	2 (≈ 4.02 µM)
CCc1[nH]c2nc(Sc3cnc4nccnc4c3)nc(N3CC[C@@H](N(C)C)C3)c2c1Cl [700,430]	32 (≈ 70.3 µM)	32 (≈ 70.3 µM)
CCc1[nH]c2nc(Sc3cnc4nccnc4c3)nc(N(C)CC(O)C(O)C(O)C(O)CO)c2c1Cl (stereo not shown) [700,431]	> 64	> 64
CCc1[nH]c2nc(Sc3cnc4nccnc4c3)nc(Oc3cccnc3)c2c1Cl [700,432]	1 (≈ 2.29 µM)	4 (≈ 9.18 µM)
CCc1[nH]c2nc(Sc3cc(=O)n(C)c(=O)[nH]3)nc(N3CC(O)C3)c2c1Br [700,433]	≤ 0.5	1 (≈ 2.21 µM)
CCc1[nH]c2nc(Sc3cnc4nccnc4c3)nc(N3CC(NS(C)(=O)=O)C3)c2c1Cl [700,435]	≤ 0.5	1 (≈ 2.04 µM)
CCc1[nH]c2nc(Sc3cnc4nccnc4c3)nc(N3CC(NS(=O)(=O)CC(F)(F)F)C3)c2c1Cl [700,436]	≤ 0.5	1 (≈ 1.79 µM)
CCc1[nH]c2nc(Sc3cnc4nccnc4c3)nc(N3CC(NS(=O)(=O)c4cnoc4C)C3)c2c1Cl [700,437]	≤ 0.5	2 (≈ 3.58 µM)
CCc1[nH]c2nc(Sc3cnc4nccnc4c3)nc(N3CC(NC(=O)COC)C3)c2c1Cl [700,438]	≤ 0.5	1 (≈ 2.06 µM)
CCc1[nH]c2nc(Sc3cnc4nccnc4c3)nc(N3CC(NC(=O)c4cnccn4)C3)c2c1Cl [700,439]	≤ 0.5	1 (≈ 1.93 µM)
CCc1[nH]c2nc(Sc3cnc4nccnc4c3)nc(N3CC(NC(=O)C4CC4)C3)c2c1Cl [700,440]	≤ 0.5	≤ 0.5
CCc1[nH]c2nc(Sc3cnc4nccnc4c3)nc(N3CC(NC(C)=O)C3)c2c1Cl [700,441]	≤ 0.5	2 (≈ 4.4 µM)
CCc1[nH]c2nc(Sc3cc(=O)n(CC(C)=O)c(=O)[nH]3)nc(N3CC(O)C3)c2c1Br [700,442]	≤ 0.5	2 (≈ 4.04 µM)
CCOc1nc(Nc2ccc3nccnc3c2)nc2[nH]c(CC)c(Br)c12.O=C(O)C(F)(F)F [700,443]	> 64	> 64
CCc1[nH]c2nc(Sc3cnc4nccnc4c3)nc(N3CCN(CCN)CC3)c2c1Cl.O=C(O)C(F)(F)F [700,444]	4	8
CCc1[nH]c2nc(Sc3cnc4nccnc4c3)nc(N3CCN(CCO)CC3)c2c1Cl.O=C(O)C(F)(F)F [700,445]	16	16
